As usually defined, the IC50 is the midpoint of a concentration-inhibition curve. A word on the Ki: it is the equilibrium dissociation constant of an inhibitor or competing ligand from its target.

Experimental findings from ChEMBL document CHEMBL1909046, “DrugMatrix in vitro pharmacology data” are described below.

The target in assay [1] is T1, Alpha-1A adrenergic receptor (Rattus norvegicus, UniProt P43140).
T1 sequence (P43140 whole entry): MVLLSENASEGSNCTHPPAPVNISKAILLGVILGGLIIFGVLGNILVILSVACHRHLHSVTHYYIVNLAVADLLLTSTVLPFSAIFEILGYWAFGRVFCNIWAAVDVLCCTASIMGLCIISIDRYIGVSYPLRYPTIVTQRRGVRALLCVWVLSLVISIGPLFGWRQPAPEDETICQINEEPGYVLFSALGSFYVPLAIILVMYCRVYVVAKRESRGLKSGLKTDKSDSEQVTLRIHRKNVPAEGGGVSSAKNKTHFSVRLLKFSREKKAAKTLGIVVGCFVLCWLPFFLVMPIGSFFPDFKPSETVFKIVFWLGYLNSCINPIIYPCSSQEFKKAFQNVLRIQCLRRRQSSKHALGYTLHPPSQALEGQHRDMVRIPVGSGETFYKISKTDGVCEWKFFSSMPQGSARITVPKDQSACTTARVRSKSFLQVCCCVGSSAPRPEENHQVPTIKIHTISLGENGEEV
Description: DRUGMATRIX: Alpha-1A adrenergic receptor radioligand binding (ligand: prazosin). Format: cell membranes, Wistar, Submaxillary gland, Membrane. The following applies: Not Active = under 50% inhibition at 10 µM.

Assay [2] in a line: DRUGMATRIX: Calcium Channel Type L, Dihydropyridine radioligand binding (ligand: [3H] Nitrendipine). The class given is cell membranes, Rattus norvegicus, Wistar, Cerebral cortex, Membrane. The following applies: Not Active = under 50% inhibition at 10 µM.
The target of another assay is T2, Calcitonin receptor (Homo sapiens, UniProt P30988). Also: in other assays of this panel Not Active means under 50% inhibition at 10 µM.
T2 sequence (P30988 whole entry): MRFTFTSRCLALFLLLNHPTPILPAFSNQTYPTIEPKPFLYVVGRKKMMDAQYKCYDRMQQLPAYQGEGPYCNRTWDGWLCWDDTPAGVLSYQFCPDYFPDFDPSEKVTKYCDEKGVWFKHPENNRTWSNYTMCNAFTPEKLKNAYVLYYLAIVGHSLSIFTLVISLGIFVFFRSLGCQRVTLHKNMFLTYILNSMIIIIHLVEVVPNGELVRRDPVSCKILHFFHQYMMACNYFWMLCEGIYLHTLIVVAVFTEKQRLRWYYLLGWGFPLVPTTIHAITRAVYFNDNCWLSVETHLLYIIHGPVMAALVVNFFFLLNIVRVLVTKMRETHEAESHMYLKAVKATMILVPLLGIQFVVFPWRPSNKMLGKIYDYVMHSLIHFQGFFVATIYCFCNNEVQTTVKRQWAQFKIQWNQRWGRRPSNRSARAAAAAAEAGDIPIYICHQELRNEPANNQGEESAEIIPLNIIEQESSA
Format: cell membranes, Membrane. As to conditions: t47d.

Assay [3] has as its target Platelet-activating factor receptor (Homo sapiens, UniProt P25105). Format: tissue-based. Also: in other assays of this panel Not Active means under 50% inhibition at 10 µM.
Assay [4] addresses T3, Muscarinic acetylcholine receptor M2 (Homo sapiens, UniProt P08172).
T3 sequence (P08172 whole entry): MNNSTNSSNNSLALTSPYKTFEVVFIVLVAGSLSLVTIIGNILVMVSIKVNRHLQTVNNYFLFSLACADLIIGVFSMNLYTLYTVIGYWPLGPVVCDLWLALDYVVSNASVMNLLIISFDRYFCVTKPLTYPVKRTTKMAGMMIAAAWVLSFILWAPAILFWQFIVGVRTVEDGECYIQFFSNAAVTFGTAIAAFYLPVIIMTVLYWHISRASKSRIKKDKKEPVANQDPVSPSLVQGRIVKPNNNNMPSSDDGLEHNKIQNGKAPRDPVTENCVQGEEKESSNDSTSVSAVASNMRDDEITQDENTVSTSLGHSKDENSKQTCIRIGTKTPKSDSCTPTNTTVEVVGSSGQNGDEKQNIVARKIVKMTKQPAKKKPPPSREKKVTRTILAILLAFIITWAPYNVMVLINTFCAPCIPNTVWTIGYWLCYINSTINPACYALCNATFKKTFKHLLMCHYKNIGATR
The class given is cell membranes, CHO-K1, Membrane.

For assay [5], the target named is Matrix metalloproteinase-9 (Homo sapiens, UniProt P14780). The class given is cell-based.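 Also: inhibition of isolated MMP-9 enzyme activity toward a synthetic peptide substrate, from the DrugMatrix protease screening panel; in other assays of this panel Not Active means under 50% inhibition at 10 µM.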
Matrix metalloproteinase-9, sequence (P14780 whole entry): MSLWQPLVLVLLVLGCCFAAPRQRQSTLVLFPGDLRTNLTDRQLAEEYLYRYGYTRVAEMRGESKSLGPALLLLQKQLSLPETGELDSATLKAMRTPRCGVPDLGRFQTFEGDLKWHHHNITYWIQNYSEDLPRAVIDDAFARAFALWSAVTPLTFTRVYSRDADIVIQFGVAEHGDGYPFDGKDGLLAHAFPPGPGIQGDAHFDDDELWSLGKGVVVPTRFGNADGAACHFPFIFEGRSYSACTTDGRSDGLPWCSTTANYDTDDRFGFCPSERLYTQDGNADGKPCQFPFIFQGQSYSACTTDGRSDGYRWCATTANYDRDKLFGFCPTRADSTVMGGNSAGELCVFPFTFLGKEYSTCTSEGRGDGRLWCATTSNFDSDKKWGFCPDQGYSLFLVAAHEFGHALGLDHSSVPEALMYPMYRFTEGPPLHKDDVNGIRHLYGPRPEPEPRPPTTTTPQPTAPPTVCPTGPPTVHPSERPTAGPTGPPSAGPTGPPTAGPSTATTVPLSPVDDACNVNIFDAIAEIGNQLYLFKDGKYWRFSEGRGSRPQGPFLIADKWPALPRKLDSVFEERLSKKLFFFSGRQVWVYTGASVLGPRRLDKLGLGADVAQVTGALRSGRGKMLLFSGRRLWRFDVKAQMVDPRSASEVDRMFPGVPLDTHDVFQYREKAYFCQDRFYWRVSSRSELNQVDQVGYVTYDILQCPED
For assay [6], the target named is C-C chemokine receptor type 5 (Homo sapiens, UniProt P51681). Format: cell membranes, Membrane. The following applies: hek293. Also: in other assays of this panel Not Active means under 50% inhibition at 10 µM.
C-C chemokine receptor type 5, sequence (P51681 whole entry): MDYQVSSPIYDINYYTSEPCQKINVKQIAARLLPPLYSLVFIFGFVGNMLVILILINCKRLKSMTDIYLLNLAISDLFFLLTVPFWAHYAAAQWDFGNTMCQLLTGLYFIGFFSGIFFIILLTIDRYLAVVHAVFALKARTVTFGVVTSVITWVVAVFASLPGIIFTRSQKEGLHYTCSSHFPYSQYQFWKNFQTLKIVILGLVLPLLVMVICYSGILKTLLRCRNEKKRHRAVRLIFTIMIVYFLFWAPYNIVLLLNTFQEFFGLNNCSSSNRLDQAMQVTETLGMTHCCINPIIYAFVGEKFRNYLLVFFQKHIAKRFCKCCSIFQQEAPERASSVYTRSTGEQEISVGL

Platelet-activating factor receptor, sequence (P25105 whole entry): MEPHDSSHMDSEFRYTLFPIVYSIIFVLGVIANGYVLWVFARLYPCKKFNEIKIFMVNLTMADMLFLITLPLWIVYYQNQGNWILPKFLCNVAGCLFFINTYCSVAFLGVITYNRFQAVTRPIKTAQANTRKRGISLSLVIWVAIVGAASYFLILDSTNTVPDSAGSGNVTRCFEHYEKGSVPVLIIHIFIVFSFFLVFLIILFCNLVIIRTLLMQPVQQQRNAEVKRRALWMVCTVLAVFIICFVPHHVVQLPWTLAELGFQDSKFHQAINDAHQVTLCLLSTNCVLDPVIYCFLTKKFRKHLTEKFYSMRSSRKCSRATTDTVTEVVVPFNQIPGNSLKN

Turning to `Cc1ccc(C)c(OCCCC(C)(C)C(=O)O)c1` [GEMFIBROZIL], the 50% inhibitory concentration (IC50) result (in assay [1]; in assay [2]; at Calcitonin receptor; in assay [3]; in assay [4] (cho-k1); in assay [5]) was “Not Active” in each case. Also, the IC50 result in assay [6] is recorded as “Not Active”. Besides, the inhibition constant Ki result in assay [2] is “Not Active”.

`O=c1c(-c2ccc(O)cc2)coc2cc(O)cc(O)c12` [GENISTEIN]: the concentration for half-maximal inhibition (IC50) result (in assay [1]; in assay [2]; on Calcitonin receptor; in assay [3]; in assay [4] (cho-k1); in assay [5]) was “Not Active” in each case. Besides, the IC50 result in assay [6] was “Not Active”. Further, the inhibition constant Ki result in assay [2] is “Not Active”.

Take `CCC1=C(C)CN(C(=O)NCCc2ccc(S(=O)(=O)NC(=O)N[C@H]3CC[C@H](C)CC3)cc2)C1=O` [GLIMEPIRIDE]: the IC50 entry (in assay [1]; in assay [2]; at Calcitonin receptor; in assay [3]; in assay [4] (cho-k1); in assay [5]) was “Not Active” throughout. Further, the IC50 entry in assay [6] is listed as “Not Active”. Also, the Ki result in assay [2] was “Not Active”.

With `Nc1cc(-c2ccncc2)c[nH]c1=O` [INAMRINONE], the IC50 entry (in assay [1]; in assay [2]; at Calcitonin receptor; in assay [3]; in assay [4] (cho-k1); in assay [5]) was “Not Active” each time. In addition, the IC50 entry in assay [6] is “Not Active”. In assay [2], the inhibition constant Ki entry is given as “Not Active”.

Consider `CCCCC1=NC2(CCCC2)C(=O)N1Cc1ccc(-c2ccccc2-c2nnn[nH]2)cc1` [IRBESARTAN], for which the IC50 result (in assay [1]; in assay [2]; on Calcitonin receptor; in assay [3]; in assay [4] (cho-k1); in assay [5]) was “Not Active” each time. Moreover, the IC50 result in assay [6] is on record as “Not Active”. The Ki result in assay [2] is reported as “Not Active”.

For the compound `CN1CCC(=C2c3ccccc3CC(=O)c3sccc32)CC1` [KETOTIFEN], the IC50 result was “Not Active” in assay [1]; “Not Active” in assay [2]; “Not Active” at Calcitonin receptor; “Not Active” in assay [3]; 838 nM in assay [4] (read-out: IC50); “Not Active” in assay [5]. Further, the IC50 entry in assay [6] was “Not Active”. Also, the Ki entry in assay [2] was “Not Active”; in assay [4] (read-out: Ki), 298 nM.

In the case of `N[C@@H](Cn1ccc(=O)c(O)c1)C(=O)O` [L-MIMOSINE], the 50% inhibitory concentration (IC50) result (in assay [1]; in assay [2]; at Calcitonin receptor; in assay [3]; in assay [4] (cho-k1); in assay [5]) was “Not Active” each time. Also, the concentration for half-maximal inhibition (IC50) entry in assay [6] is listed as “Not Active”. Further, in assay [2], the inhibition constant Ki result is “Not Active”.

Take `C[N+](C)(C)C[C@H](O)CC(=O)[O-]` [LEVOCARNITINE]: the IC50 result (in assay [1]; in assay [2]; at Calcitonin receptor; in assay [3]; in assay [4] (cho-k1); in assay [5]) was “Not Active” throughout. Further, the 50% inhibitory concentration (IC50) entry in assay [6] is listed as “Not Active”. In addition, the inhibitory constant (Ki) entry in assay [2] was “Not Active”.

For `C[C@H]1COc2c(N3CCN(C)CC3)c(F)cc3c(=O)c(C(=O)O)cn1c23.C[C@H]1COc2c(N3CCN(C)CC3)c(F)cc3c(=O)c(C(=O)O)cn1c23.O` [LEVOFLOXACIN], the IC50 entry (in assay [1]; in assay [2]; at Calcitonin receptor; in assay [3]; in assay [4] (cho-k1); in assay [5]) was “Not Active” each time. Besides, in assay [6], the half-inhibitory concentration (IC50) result was “Not Active”. Also, the Ki result in assay [2] was “Not Active”.

Turning to `CCn1cc(C(=O)O)c(=O)c2cc(F)c(N3CCNC(C)C3)c(F)c21` (stereo unspecified) [LOMEFLOXACIN], the IC50 entry (in assay [1]; in assay [2]; on Calcitonin receptor; in assay [3]; in assay [4] (cho-k1); in assay [5]) was “Not Active” throughout. Moreover, in assay [6], the concentration for half-maximal inhibition (IC50) entry is “Not Active”. Besides, the Ki entry in assay [2] is listed as “Not Active”.
